Experimental data as given in patent US20090232762A1, “COMPOSITIONS FOR DELIVERY OF THERAPEUTIC AGENTS” (priority 2008, published 2009).
Where two headings read alike, the source gives them in different places.

Tests used:
yCD = target: T1, yCD (Saccharomyces cerevisiae, UniProt Q12178); test: Enzyme activity of yCD (His tag cleaved); assay type: biochemical, S. cerevisiae
T1 construct: The resulting 474 bp gene was subcloned into pET-15b; histidine tag (pET-15b) (N, cleaved yes); made in house; host or cells: E. coli BL21(DE3)
T1 sequence (Q12178 whole entry): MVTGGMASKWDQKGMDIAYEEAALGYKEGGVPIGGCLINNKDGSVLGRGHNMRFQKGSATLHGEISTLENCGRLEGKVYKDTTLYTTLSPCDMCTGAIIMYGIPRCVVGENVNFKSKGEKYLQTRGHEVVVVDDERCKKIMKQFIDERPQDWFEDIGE
Protocol: (§1) The S. cerevisiae yeast cytosine deaminase (yCD) enzyme was cloned and expressed. The resulting 474 bp gene was subcloned into pET-15b to facilitate purification of the protein via a fused histidine tag and transformed into competent BL21(DE3) cells for protein expression. An estimate of about 25-30 mg of pure yCD-His was collected from a 1-liter culture. Thrombin cleavage of the histidine tag on yCD-His was achieved by incubating the protein for 2 hours at 23° C. in thrombin cleavage buffer. Enzyme activity characteristics for yCD and yCD-His was investigated using both the prodrug 5FC and the enzyme's natural substrate, the DNA base cytosine. Five-FC turnover rates remained within 10^5 M^−1·s^−1 (Table 1) for both proteins (see E. Kievit et al. Cancer Res. 2000, 60:6649-6655). The diffusion controlled limit for extremely efficient enzymes and their substrates in solution is in the range 10^8-10^9 M^−1·s^−1, therefore it was concluded that yCD was a very efficient pretargeting enzyme for catalyzing 5FC to 5FU conversion, especially applicable to GDEPT.

yCD-His = target: T2, yCD-His (Saccharomyces cerevisiae, UniProt Q12178); test: Enzyme activity of yCD-His (substrate turnover); assay type: biochemical, S. cerevisiae
T2 construct: The resulting 474 bp gene was subcloned into pET-15b; made in house; host or cells: E. coli BL21(DE3)
T2 sequence (Q12178 whole entry): as above
Protocol: as §1

[1] = cited from earlier work; for LogP (Drug): drug named
MDA-MB-231 [2] = test: 5FU toxicity in MDA-MB-231 (drug concentration vs. % cell death, Hill-Slope fit); assay type: cell-based; details: Homo sapiens; MDA-MB-231, % cell death, Hill-Slope curve fit
MDA-MB-231 [3] = details: reported on the National Cancer Institute website; cited from earlier work

kcat (yCD) [s⁻¹] | kcat (yCD-His) [s⁻¹] | SMILES | LogP (Drug) [1] | other results
448 | 315 | Nc1nc(=O)[nH]cc1F [5-FC, 5-fluorocytosine] | – | LogP (Prodrug) ([1]; prodrug column): −1.79
– | – | O=c1[nH]cc(F)c(=O)[nH]1 [5-FU, 5-fluorouracil] | −2.17 | IC50 (MDA-MB-231 [2]): 2.9 µM; IC50 (MDA-MB-231 [3]): 0.9 µM
741 | 607 | Nc1cc[nH]c(=O)n1 [Cytosine, cytosine] | – | –
– | – | COc1cccc2c1C(=O)c1c(O)c3c(c(O)c1C2=O)C[C@@](O)(C(=O)CO)C[C@@H]3O[C@H]1C[C@H](N)[C@H](O)[C@H](C)O1 [DOX, doxorubicin] | +0.36 | –
– | – | CCc1c2c(nc3ccc(O)cc13)-c1cc3c(c(=O)n1C2)COC(=O)[C@]3(O)CC [SN-38, 7-ethyl-10-hydroxycamptothecin] | +2.02 | –
